The results in this text go back to article PMC6118079 (Iranian Journal of Basic Medical Sciences, 2018).

SMILES strings stand for the structures.

The test deals with krait snake venom acetylcholinesterase (AChE). The test is classed as biochemical, Bungarus sindanus. The note with it: no extract (control); 0.5-1 mM substrate, 50 mM phosphate pH 7.4, 37 °C; crude venom as enzyme source.

The term Km denotes the concentration of substrate that gives half-maximal velocity.

As to `CC(=O)SCC[N+](C)(C)C` [acetylthiocholine], the Km was 160 µM.
